# Experimental data published in PMC5030134 (Nature chemical biology, 2016).
# Target: T1, α-xylosidase (Xylsa) (Saccharolobus solfataricus, UniProt Q9P999)
# T1 sequence (Q9P999 1-731): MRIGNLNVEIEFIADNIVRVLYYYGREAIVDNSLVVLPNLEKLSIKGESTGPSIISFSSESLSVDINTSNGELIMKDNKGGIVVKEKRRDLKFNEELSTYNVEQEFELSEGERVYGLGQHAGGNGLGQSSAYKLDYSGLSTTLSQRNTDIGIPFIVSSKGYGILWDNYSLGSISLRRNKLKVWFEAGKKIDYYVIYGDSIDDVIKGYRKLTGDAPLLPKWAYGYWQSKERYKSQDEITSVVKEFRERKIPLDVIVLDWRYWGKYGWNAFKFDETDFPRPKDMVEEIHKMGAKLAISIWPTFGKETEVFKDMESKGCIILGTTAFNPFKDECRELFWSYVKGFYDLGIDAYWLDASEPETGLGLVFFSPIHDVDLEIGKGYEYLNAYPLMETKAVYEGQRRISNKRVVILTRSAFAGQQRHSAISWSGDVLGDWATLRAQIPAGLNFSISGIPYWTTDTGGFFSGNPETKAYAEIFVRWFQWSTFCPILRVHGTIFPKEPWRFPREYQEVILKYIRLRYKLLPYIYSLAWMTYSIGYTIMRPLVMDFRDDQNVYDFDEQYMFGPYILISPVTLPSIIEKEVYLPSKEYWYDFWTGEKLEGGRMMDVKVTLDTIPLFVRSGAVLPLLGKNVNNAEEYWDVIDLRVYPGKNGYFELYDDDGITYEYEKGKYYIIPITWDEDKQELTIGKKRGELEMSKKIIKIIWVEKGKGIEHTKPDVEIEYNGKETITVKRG
# Test: HPLC and ESI-MS of digestion product
# Assay type: biochemical
# Settings: 150 mM sodium acetate pH 5.5, 65 °C, 3 h; second step, gives G3
compound,measurement,value
Cc1cc(=O)oc2cc(O[C@@H]3O[C@H](C(=O)O)[C@@H](O)[C@H](O[C@H]4OC[C@@H](O)[C@H](O[C@@H]5O[C@H](C(=O)O)[C@@H](O)[C@H](O[C@H]6OC[C@@H](O)[C@H](O)[C@H]6O)[C@H]5O)[C@H]4O)[C@H]3O)ccc12 [G4],HPLC and ESI-MS of digestion product,The product of the first step of G5 digestion was incubated with Xylsa
